This note sets out measurements from PubChem BioAssay AID280 (DTP/NCI, 2004).

The assay deals with nude mice, LOX melanoma ip, survival T/C. Kind of assay: NCI In Vivo Anticancer Drug Screen. Data for tumor model Human Amelanotic Melanoma (LOX) (intraperitoneal) in NU/NU BALB/C (nude) mice. Particulars: endpoint: median survival time, higher = longer survival. The protocol: The antitumor activity of compounds was measured in mice bearing transplantable tumors. Survival or tumor size were measured and the results are expressed as the measurement made in the treated group (T) divided by the measurement made in the vehicle treated control group (C). The tumor model used in this assay is Human Amelanotic Melanoma (LOX) (intraperitoneal) in NU/NU BALB/C (nude) mice

[1] abbreviates: dose: 150.0 mg/kg/injection, schedule: Q04DX003 (ip), vehicle: water.
Where [2] appears, read: dose: 50.0 mg/kg/injection, schedule: Q04DX003 (ip), vehicle: saline with Tween-80.
[3] abbreviates: dose: 12.5 mg/kg/injection, schedule: Q04DX003 (ip), vehicle: saline with Tween-80.
Where [4] appears, read: dose: 25.0 mg/kg/injection, schedule: Q04DX003 (ip), vehicle: saline with Tween-80.

Several values for one entry are separate records, joined by “and”; a condition that tells them apart may be missing. Equal values may be shown once. Toxic doses and inconclusive results are not listed.

In the case of `[Na+]`, the T/C reads like this: (dose: 75.0 mg/kg/injection, schedule: Q04DX003 (ip), vehicle: water) 104 % of control; under setting [1], 95 % of control; (dose: 300.0 mg/kg/injection, schedule: Q04DX003 (ip), vehicle: water) 108 % of control; (dose: 1200.0 mg/kg/injection, schedule: Q04DX003 (ip), vehicle: water) 99 % of control.
In the case of `Cc1nc2c(N)cc(Cl)cc2[nH]1`, the T/C is 114 % of control under setting [2]; 112 % of control (dose: 100.0 mg/kg/injection, schedule: Q04DX003 (ip), vehicle: saline with Tween-80); 99 % of control (dose: 200.0 mg/kg/injection, schedule: Q04DX003 (ip), vehicle: saline with Tween-80).
Turning to `Cc1ccc(/C=C/C(=O)/C=C/c2ccc(C)o2)o1`, the T/C was 113 % of control (dose: 50.0 mg/kg/injection, schedule: Q04DX003 (ip), vehicle: DMSO); 102 % of control (dose: 100.0 mg/kg/injection, schedule: Q04DX003 (ip), vehicle: DMSO); 98 % of control (dose: 200.0 mg/kg/injection, schedule: Q04DX003 (ip), vehicle: DMSO); 100 % of control (dose: 400.0 mg/kg/injection, schedule: Q04DX003 (ip), vehicle: DMSO); 106 % of control (dose: 800.0 mg/kg/injection, schedule: Q04DX003 (ip), vehicle: DMSO).
`CCOC(=O)c1ccc(NN=NCCF)cc1`: the T/C (dose: 75.0 mg/kg/injection, schedule: Q04DX003 (ip), vehicle: distilled water + Tween-80 + alcohol) is 111 % of control; the T/C (dose: 150.0 mg/kg/injection, schedule: Q04DX003 (ip), vehicle: distilled water + Tween-80 + alcohol) was 106 % of control; the T/C (dose: 300.0 mg/kg/injection, schedule: Q04DX003 (ip), vehicle: distilled water + Tween-80 + alcohol) was 110 % of control; the T/C (dose: 600.0 mg/kg/injection, schedule: Q04DX003 (ip), vehicle: distilled water + Tween-80 + alcohol) was 100 % of control.
As for `CCOC(=O)C(N)C[S][Sn]([CH3])([CH3])[Cl]` (stereo unspecified), the T/C under setting [3] was 99 % of control, the T/C under setting [4] is 101 % of control and the T/C under setting [2] was 104 % of control.
Consider `O=C([O][Bi]([c]1ccccc1)[c]1ccccc1)c1ccccc1`, for which the T/C was 98 % of control (dose: 12.5 mg/kg/injection, schedule: Q04DX003 (ip), vehicle: Klucel (hydroxypropylcellulose) (HPC)); 211 % of control (dose: 50.0 mg/kg/injection, schedule: Q04DX003 (ip), vehicle: Klucel (hydroxypropylcellulose) (HPC)); 103 % of control (dose: 200.0 mg/kg/injection, schedule: Q04DX003 (ip), vehicle: Klucel (hydroxypropylcellulose) (HPC)).
As to `CCC(c1ccc(O)cc1)C(CC)c1ccc(OCCN)cc1` (stereo unspecified), the T/C is 88 % of control (dose: 62.5 mg/kg/injection, schedule: Q04DX003 (ip), vehicle: saline with Tween-80); 104 % of control (dose: 125.0 mg/kg/injection, schedule: Q04DX003 (ip), vehicle: saline with Tween-80); 93 % of control (dose: 250.0 mg/kg/injection, schedule: Q04DX003 (ip), vehicle: saline with Tween-80); 92 % of control (dose: 500.0 mg/kg/injection, schedule: Q04DX003 (ip), vehicle: saline with Tween-80); 93 % of control (dose: 1000.0 mg/kg/injection, schedule: Q04DX003 (ip), vehicle: saline with Tween-80).
As to `O=NNc1cnccn1`, the T/C is 110 % of control (dose: 11.3 mg/kg/injection, schedule: Q01DX009 (ip), vehicle: other); 117 % of control (dose: 11.3 mg/kg/injection, schedule: Q03HX008 (ip), vehicle: other); 110 % of control (dose: 12.5 mg/kg/injection, schedule: Q04DX003 (ip), vehicle: water); 97 % of control (dose: 16.9 mg/kg/injection, schedule: Q01DX005 (iv), vehicle: other); 153 % of control (dose: 16.9 mg/kg/injection, schedule: Q01DX009 (ip), vehicle: other); 175 % of control (dose: 25.3 mg/kg/injection, schedule: Q01DX009 (ip), vehicle: other). Also, the T/C by setting is: (dose: 25.3 mg/kg/injection, schedule: Q03HX008 (ip), vehicle: other) 159 % of control; (dose: 29.7 mg/kg/injection, schedule: Q04DX003 (ip), vehicle: water) 201 % of control; (dose: 38.0 mg/kg/injection, schedule: Q01DX005 (iv), vehicle: other) 153 % of control; (dose: 38.0 mg/kg/injection, schedule: Q01DX009 (ip), vehicle: other) 189 % of control; (dose: 38.0 mg/kg/injection, schedule: Q04DX003 (iv), vehicle: other) 123 % of control; (dose: 44.5 mg/kg/injection, schedule: Q04DX003 (ip), vehicle: water) 180 % of control and 189 % of control. Besides, the T/C reads like this: (dose: 50.0 mg/kg/injection, schedule: Q04DX003 (ip), vehicle: water) 156 % of control; (dose: 57.0 mg/kg/injection, schedule: Q01DX001 (ip), vehicle: other) 116 % of control; (dose: 57.0 mg/kg/injection, schedule: Q01DX001 (iv), vehicle: other) 115 % of control; (dose: 57.0 mg/kg/injection, schedule: Q01DX005 (iv), vehicle: other) 191 % of control; (dose: 57.0 mg/kg/injection, schedule: Q01DX009 (ip), vehicle: other) 220 % of control; (dose: 57.0 mg/kg/injection, schedule: Q04DX003 (ip), vehicle: other) 170 % of control. In addition, the T/C was 154 % of control (dose: 57.0 mg/kg/injection, schedule: Q04DX003 (iv), vehicle: other); 200 % of control and 221 % of control (dose: 66.7 mg/kg/injection, schedule: Q04DX003 (ip), vehicle: water); 120 % of control (dose: 85.4 mg/kg/injection, schedule: Q01DX001 (iv), vehicle: other); 185 % of control (dose: 85.4 mg/kg/injection, schedule: Q04DX003 (ip), vehicle: other); 159 % of control (dose: 85.4 mg/kg/injection, schedule: Q04DX003 (iv), vehicle: other); 150 % of control (dose: 85.4 mg/kg/injection, schedule: Q08DX002 (ip), vehicle: other). The T/C (dose: 100.0 mg/kg/injection, schedule: Q04DX003 (ip), vehicle: water) was 232 % of control and 250 % of control and 301 % of control; the T/C (dose: 128.0 mg/kg/injection, schedule: Q01DX001 (ip), vehicle: other) is 170 % of control; the T/C (dose: 128.0 mg/kg/injection, schedule: Q04DX003 (ip), vehicle: other) is 170 % of control; the T/C (dose: 128.0 mg/kg/injection, schedule: Q04DX003 (iv), vehicle: other) was 91 % of control; the T/C (dose: 128.0 mg/kg/injection, schedule: Q08DX002 (ip), vehicle: other) is 180 % of control; the T/C under setting [1] is 248 % of control and 296 % of control. In addition, the T/C was 180 % of control (dose: 192.0 mg/kg/injection, schedule: Q01DX001 (ip), vehicle: other); 300 % of control (dose: 192.0 mg/kg/injection, schedule: Q08DX002 (ip), vehicle: other); 121 % of control (dose: 200.0 mg/kg/injection, schedule: Q04DX003 (ip), vehicle: water).
With `COc1cccc(Sc2ccc([N+](=O)[O-])c3no[n+]([O-])c23)c1`, the T/C by setting is: (dose: 37.5 mg/kg/injection, schedule: Q04DX003 (ip), vehicle: saline with Tween-80) 101 % of control; (dose: 75.0 mg/kg/injection, schedule: Q04DX003 (ip), vehicle: saline with Tween-80) 120 % of control; (dose: 150.0 mg/kg/injection, schedule: Q04DX003 (ip), vehicle: saline with Tween-80) 89 % of control; (dose: 300.0 mg/kg/injection, schedule: Q04DX003 (ip), vehicle: saline with Tween-80) 101 % of control.
On to `OCC1OC(n2cnc3c2NC=NC[C@H]3O)CC1O` (stereo partly specified), for which the T/C (dose: 2.0 mg/kg/injection, schedule: Q04DX003 (ip), vehicle: saline) is 102 % of control; the T/C (dose: 4.0 mg/kg/injection, schedule: Q04DX003 (ip), vehicle: saline) was 94 % of control; the T/C (dose: 8.0 mg/kg/injection, schedule: Q04DX003 (ip), vehicle: saline) was 96 % of control; the T/C (dose: 16.0 mg/kg/injection, schedule: Q04DX003 (ip), vehicle: saline) is 100 % of control.
Take `C[n+]1c(-c2ccc(NC(=O)c3ccc(C(=O)Nc4ccc(-c5cn6ccccc6[n+]5C)cc4)cc3)cc2)cn2ccccc21`: the T/C is, setting by setting: under setting [3], 114 % of control; under setting [4], 103 % of control; under setting [2], 97 % of control.
